{
  "source": "paper doi:10.1101/2025.09.30.679600",
  "about": "“Expansion of DNA-Encoded Library Hits Using Generative Chemistry and Ultra-Large Compound Catalogs” (bioRxiv, 2025)",
  "data": [
    {"molecular_target": "T1, 53BP1 tandem Tudor domain (TTD) (Homo sapiens, UniProt Q12888)", "T1 construct": "DEL screens targeting the tandem Tudor domain (TTD) of 53BP1; made in house", "T1 sequence (Q12888 1484-1603 limits assumed)": "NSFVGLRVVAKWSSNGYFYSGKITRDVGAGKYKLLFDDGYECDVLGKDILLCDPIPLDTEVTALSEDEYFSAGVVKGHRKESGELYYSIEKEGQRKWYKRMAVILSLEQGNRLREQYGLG", "experiment": "53BP1 TR-FRET displacement assay", "type": "binding", "conditions": "mean ± SD of at least three replicates", "description": "In this work, we test the hypothesis that initializing a structure-based generative AI workflow with validated DEL screening data can rapidly identify novel, potent, and more drug-like compounds from an ultra-large virtual library, outperforming traditional hit-picking strategies. To do so, we present a DEL-driven, integrated virtual screening workflow that combines the HIDDEN GEM platform with the multi-billion-compound Enamine REAL Space (Figure 1). Using data from our recently published DEL screens targeting the tandem Tudor domain (TTD) of 53BP1,[8],[16],[27] we biased our generative structure-guided ML model to identify novel, commercially available compounds from the Enamine REAL Space. All purchased and off-DNA synthesized compounds were experimentally tested using a developed time-resolved fluorescence resonance energy transfer (TR-FRET) displacement assay. This workflow provides a rapid, cost-effective strategy for academic labs and small biotech companies to accelerate hit discovery using focused DEL libraries and to expand beyond the screened chemical space, which is particularly important for smaller-sized DELs.\nReagents, protein expression/purification, DEL production and screening, and TR-FRET screening protocols were previously reported.[16],[27] […]\n[Compound], µM [Compound], µM [Compound], µM\n[Compound], µM [Compound], µM\nFigure S2. 53BP1 TR-FRET displacement assay dose-response curves for compounds identified from\nHIDDEN GEM. Each data point represents the mean of three replicates (n=3), with error bars indicating standard\ndeviation. Dose-response curves were fitted using a four-parameter Hill equation. […]", "units": {"IC50": "µM"}, "values": [
      {"smiles": "CN1CCN(c2ccccc2NC(=O)c2cc3ccccc3[nH]2)CC1", "note": "[UNC10413788A]", "IC50": "22 ± 3.6"},
      {"smiles": "CN1CCC(Nc2ccccc2NC(=O)c2cccc(F)c2)CC1", "note": "[UNC10413800A]", "IC50": "54 ± 8.5"},
      {"smiles": "COc1ccc(C(CNC2=NS(=O)(=O)c3ccccc32)N2CCCC2)cc1", "note": "(centres unmarked) [UNC10413807A]", "IC50": "43 ± 0.44"},
      {"smiles": "CCN1CCN(c2ccccc2NC(=O)c2cc(O)c3ccccc3c2)CC1", "note": "[UNC10414641A]", "IC50": "58 ± 10"},
      {"smiles": "Cc1ccc(C(CNC2=NS(=O)(=O)c3ccccc32)N2CCCC2)cc1", "note": "(centres unmarked) [UNC10414645A]", "IC50": "34 ± 3"}
    ]}
  ]
}
